The subject of one assay is MOLT-4 cells. Description: Cell viability assay, MTS, 48 h, MOLT-4. In kind it is cell-based. The settings on record: Homo sapiens, MOLT-4, 48 h, 48 hours, read-out: IC50 (48 hours) MOLT-4. As to the method:
(§1) Acute lymphoblastic leukemia cells (MOLT-4 and RS4; 11) or small cell lung cancer (NCI-H146 or simply H146) were incubated with increasing concentrations of Bcl-xL degraders for 48 h. Cell viability was measured by tetrazolium-based MTS assay.

The subject of a further assay is RS4;11 cells. Kind of assay: Cell viability assay, MTS, 48 h, RS4;11. In kind it is cell-based. The settings on record: Homo sapiens, RS4-11, 48 h, 48 hours, read-out: IC50 (48 hours) RS4;11. As for the experimental part:
as §1

Results on eleven compounds are retold here after patent US20220169628A1 (University of Florida Research Foundation, Incorporated, priority 2019, published 2022).

Turning to `CC1(CNC(=O)CCCCCNc2cccc3c2C(=O)N(C2CCC(=O)NC2=O)C3=O)CCC(c2ccc(Cl)cc2)=C(CN2CCN(c3ccc(C(=O)NS(=O)(=O)c4ccc(N[C@H](CCN5CCOCC5)CSc5ccccc5)c(S(=O)(=O)C(F)(F)F)c4)cc3)CC2)C1` (stereo partly drawn) [compound 71, 4-(4-((4′-chloro-4-((6-((2-(2,6-dioxopiperidin-3-yl)-1,3-dioxoisoindolin-4-yl)amino)hexanamido)methyl)-4-methyl-3,4,5,6-tetrahydro-[1,1′-biphenyl]-2-yl)methyl)piperazin-1-yl)-N-((4-(((R)-4-morpholino-1-(phenylthio)butan-2-yl)amino)-3-((trifluoromethyl)sulfonyl)phenyl)sulfonyl)benzamide], the IC50 in the assay with MOLT-4 cells and with RS4;11 cells was < 50 nM in each case.

As for `CC1(CNC(=O)CCCCCCNc2cccc3c2C(=O)N(C2CCC(=O)NC2=O)C3=O)CCC(c2ccc(Cl)cc2)=C(CN2CCN(c3ccc(C(=O)NS(=O)(=O)c4ccc(N[C@H](CCN5CCOCC5)CSc5ccccc5)c(S(=O)(=O)C(F)(F)F)c4)cc3)CC2)C1` (stereo partly drawn) [compound 72, 4-(4-((4′-chloro-4-((7-((2-(2,6-dioxopiperidin-3-yl)-1,3-dioxoisoindolin-4-yl)amino)heptanamido)methyl)-4-methyl-3,4,5,6-tetrahydro-[1,1′-biphenyl]-2-yl)methyl)piperazin-1-yl)-N-((4-(((R)-4-morpholino-1-(phenylthio)butan-2-yl)amino)-3-((trifluoromethyl)sulfonyl)phenyl)sulfonyl)benzamide], the IC50 with MOLT-4 cells and in the assay on RS4;11 cells was < 50 nM throughout.

As to `CC1(CNC(=O)CCCCCCCNc2cccc3c2C(=O)N(C2CCC(=O)NC2=O)C3=O)CCC(c2ccc(Cl)cc2)=C(CN2CCN(c3ccc(C(=O)NS(=O)(=O)c4ccc(N[C@H](CCN5CCOCC5)CSc5ccccc5)c(S(=O)(=O)C(F)(F)F)c4)cc3)CC2)C1` (stereo partly drawn) [compound 73, 4-(4-((4′-chloro-4-((8-((2-(2,6-dioxopiperidin-3-yl)-1,3-dioxoisoindolin-4-yl)amino)octanamido)methyl)-4-methyl-3,4,5,6-tetrahydro-[1,1′-biphenyl]-2-yl)methyl)piperazin-1-yl)-N-((4-(((R)-4-morpholino-1-(phenylthio)butan-2-yl)amino)-3-((trifluoromethyl)sulfonyl)phenyl)sulfonyl)benzamide], the IC50 with MOLT-4 cells and in the assay on RS4;11 cells was < 50 nM each time.

`CC1(CNC(=O)CCCCCCCCNc2cccc3c2C(=O)N(C2CCC(=O)NC2=O)C3=O)CCC(c2ccc(Cl)cc2)=C(CN2CCN(c3ccc(C(=O)NS(=O)(=O)c4ccc(N[C@H](CCN5CCOCC5)CSc5ccccc5)c(S(=O)(=O)C(F)(F)F)c4)cc3)CC2)C1` (stereo partly drawn) [compound 74, 4-(4-((4′-chloro-4-((9-((2-(2,6-dioxopiperidin-3-yl)-1,3-dioxoisoindolin-4-yl)amino)nonanamido)methyl)-4-methyl-3,4,5,6-tetrahydro-[1,1′-biphenyl]-2-yl)methyl)piperazin-1-yl)-N-((4-(((R)-4-morpholino-1-(phenylthio)butan-2-yl)amino)-3-((trifluoromethyl)sulfonyl)phenyl)sulfonyl)benzamide]: the IC50 (commonly the concentration at which inhibition is half-maximal) with MOLT-4 cells is < 50 nM; in the assay with RS4;11 cells it was 50 to 150 nM.

Take `CC1(CNC(=O)CCCCCCCCCCNc2cccc3c2C(=O)N(C2CCC(=O)NC2=O)C3=O)CCC(c2ccc(Cl)cc2)=C(CN2CCN(c3ccc(C(=O)NS(=O)(=O)c4ccc(N[C@H](CCN5CCOCC5)CSc5ccccc5)c(S(=O)(=O)C(F)(F)F)c4)cc3)CC2)C1` (stereo partly drawn) [compound 75, 4-(4-((4′-chloro-4-((11-((2-(2,6-dioxopiperidin-3-yl)-1,3-dioxoisoindolin-4-yl)amino)undecanamido)methyl)-4-methyl-3,4,5,6-tetrahydro-[1,1′-biphenyl]-2-yl)methyl)piperazin-1-yl)-N-((4-(((R)-4-morpholino-1-(phenylthio)butan-2-yl)amino)-3-((trifluoromethyl)sulfonyl)phenyl)sulfonyl)benzamide]: the IC50 fell in the range of 50 to 150 nM in the assay with MOLT-4 cells and 150 to 500 nM in the assay with RS4;11 cells.

Regarding `CC1(CNC(=O)COCCNc2cccc3c2C(=O)N(C2CCC(=O)NC2=O)C3=O)CCC(c2ccc(Cl)cc2)=C(CN2CCN(c3ccc(C(=O)NS(=O)(=O)c4ccc(N[C@H](CCN5CCOCC5)CSc5ccccc5)c(S(=O)(=O)C(F)(F)F)c4)cc3)CC2)C1` (stereo partly drawn) [compound 76, 4-(4-((4′-chloro-4-((2-(2-((2-(2,6-dioxopiperidin-3-yl)-1,3-dioxoisoindolin-4-yl)amino)ethoxy)acetamido)methyl)-4-methyl-3,4,5,6-tetrahydro-[1,1′-biphenyl]-2-yl)methyl)piperazin-1-yl)-N-((4-(((R)-4-morpholino-1-(phenylthio)butan-2-yl)amino)-3-((trifluoromethyl)sulfonyl)phenyl)sulfonyl)benzamide], the IC50 in the assay with MOLT-4 cells and in the assay with RS4;11 cells was 50 to 150 nM throughout.

As to `CC1(CNC(=O)COCCOCCNc2cccc3c2C(=O)N(C2CCC(=O)NC2=O)C3=O)CCC(c2ccc(Cl)cc2)=C(CN2CCN(c3ccc(C(=O)NS(=O)(=O)c4ccc(N[C@H](CCN5CCOCC5)CSc5ccccc5)c(S(=O)(=O)C(F)(F)F)c4)cc3)CC2)C1` (stereo partly drawn) [compound 77, 4-(4-((4′-chloro-4-((2-(2-(2-((2-(2,6-dioxopiperidin-3-yl)-1,3-dioxoisoindolin-4-yl)amino)ethoxy)ethoxy)acetamido)methyl)-4-methyl-3,4,5,6-tetrahydro-[1,1′-biphenyl]-2-yl)methyl)piperazin-1-yl)-N-((4-(((R)-4-morpholino-1-(phenylthio)butan-2-yl)amino)-3-((trifluoromethyl)sulfonyl)phenyl)sulfonyl)benzamide], the IC50 in the assay on MOLT-4 cells and in the assay on RS4;11 cells was < 50 nM in each case.

Take `CC1(CNC(=O)COCCOCCOCCNc2cccc3c2C(=O)N(C2CCC(=O)NC2=O)C3=O)CCC(c2ccc(Cl)cc2)=C(CN2CCN(c3ccc(C(=O)NS(=O)(=O)c4ccc(N[C@H](CCN5CCOCC5)CSc5ccccc5)c(S(=O)(=O)C(F)(F)F)c4)cc3)CC2)C1` (stereo partly drawn) [compound 78, 4-(4-((4′-chloro-4-(13-((2-(2,6-dioxopiperidin-3-yl)-1,3-dioxoisoindolin-4-yl)amino)-3-oxo-5,8,11-trioxa-2-azatridecyl)-4-methyl-3,4,5,6-tetrahydro-[1,1′-biphenyl]-2-yl)methyl)piperazin-1-yl)-N-((4-(((R)-4-morpholino-1-(phenylthio)butan-2-yl)amino)-3-((trifluoromethyl)sulfonyl)phenyl)sulfonyl)benzamide]: the half-inhibitory concentration (IC50) in the assay with MOLT-4 cells and in the assay on RS4;11 cells was < 50 nM each time.

Consider `Cc1ncsc1-c1ccc([C@H](C)NC(=O)[C@@H]2C[C@@H](O)CN2C(=O)[C@@H](NC(=O)CCC(=O)N2CCC(c3ccc(Cl)cc3)=C(CN3CCN(c4ccc(C(=O)NS(=O)(=O)c5ccc(N[C@H](CCN6CCOCC6)CSc6ccccc6)c(S(=O)(=O)C(F)(F)F)c5)cc4)CC3)C2)C(C)(C)C)cc1` [compound 79, (2S,4R)-1-((S)-2-(4-(4-(4-chlorophenyl)-5-((4-(4-(((4-(((R)-4-morpholino-1-(phenylthio)butan-2-yl)amino)-3-((trifluoromethyl)sulfonyl)phenyl)sulfonyl)carbamoyl)phenyl)piperazin-1-yl)methyl)-3,6-dihydropyridin-1(2H)-yl)-4-oxobutanamido)-3,3-dimethylbutanoyl)-4-hydroxy-N—((S)-1-(4-(4-methylthiazol-5-yl)phenyl)ethyl)pyrrolidine-2-carboxamide], for which the IC50 in the assay on MOLT-4 cells and in the assay with RS4;11 cells was > 500 nM throughout.

With `Cc1ncsc1-c1ccc([C@H](C)NC(=O)[C@@H]2C[C@@H](O)CN2C(=O)[C@@H](NC(=O)CCCCCC(=O)N2CCC(c3ccc(Cl)cc3)=C(CN3CCN(c4ccc(C(=O)NS(=O)(=O)c5ccc(N[C@H](CCN6CCOCC6)CSc6ccccc6)c(S(=O)(=O)C(F)(F)F)c5)cc4)CC3)C2)C(C)(C)C)cc1` [compound 80, (2S,4R)-1-((S)-2-(7-(4-(4-chlorophenyl)-5-((4-(4-(((4-(((R)-4-morpholino-1-(phenylthio)butan-2-yl)amino)-3-((trifluoromethyl)sulfonyl)phenyl)sulfonyl)carbamoyl)phenyl)piperazin-1-yl)methyl)-3,6-dihydropyridin-1(2H)-yl)-7-oxoheptanamido)-3,3-dimethylbutanoyl)-4-hydroxy-N—((S)-1-(4-(4-methylthiazol-5-yl)phenyl)ethyl)pyrrolidine-2-carboxamide], the IC50 in the assay on MOLT-4 cells and in the assay with RS4;11 cells was > 500 nM in each case.

With `Cc1ncsc1-c1ccc([C@H](C)NC(=O)[C@@H]2C[C@@H](O)CN2C(=O)[C@@H](NC(=O)CCCCCCCCC(=O)N2CCC(c3ccc(Cl)cc3)=C(CN3CCN(c4ccc(C(=O)NS(=O)(=O)c5ccc(N[C@H](CCN6CCOCC6)CSc6ccccc6)c(S(=O)(=O)C(F)(F)F)c5)cc4)CC3)C2)C(C)(C)C)cc1` [compound 83, (2S,4R)-1-((S)-2-(10-(4-(4-chlorophenyl)-5-((4-(4-(((4-(((R)-4-morpholino-1-(phenylthio)butan-2-yl)amino)-3-((trifluoromethyl)sulfonyl)phenyl)sulfonyl)carbamoyl)phenyl)piperazin-1-yl)methyl)-3,6-dihydropyridin-1(2H)-yl)-10-oxodecanamido)-3,3-dimethylbutanoyl)-4-hydroxy-N—((S)-1-(4-(4-methylthiazol-5-yl)phenyl)ethyl)pyrrolidine-2-carboxamide], the half-maximal inhibitory concentration (IC50) in the assay on MOLT-4 cells was in the range of 50 to 150 nM; in the assay with RS4;11 cells it was 150 to 500 nM.
